Experiment [1] can be described thus: Inhibition of alpha-galactosidase.
A short description of experiment [2]: Inhibition of alpha-glucosidase.

The structures appear in SMILES notation. Activity calls are given as the source filed them. No rule for the calls is given here.
Also: test concentration or dose not given here.

As for `CC1(C)CCc2cc(S(=O)(=O)N3CCN(c4nc(-c5cccs5)nc5ccccc45)CC3)ccc2O1`, the outcome in experiment [1] and in experiment [2] was inactive.

Take `O=S(=O)(c1ccccc1Cl)N1CCN(c2nc(-c3ccccc3)nc3ccccc23)CC1`: the result in experiment [1] and in experiment [2] was inactive.

`O=S(=O)(c1ccccc1Br)N1CCN(c2nc(-c3cccs3)nc3ccccc23)CC1`: the result in experiment [1] and in experiment [2] was inactive.

In the case of `N#Cc1ccc(S(=O)(=O)N2CCN(c3nc(-c4ccccc4)nc4ccccc34)CC2)cc1`, the outcome in experiment [1] and in experiment [2] was inactive.

With `O=S(=O)(/C=C/c1ccccc1)N1CCN(c2nc(-c3cccnc3)nc3ccccc23)CC1`, the result in experiment [1] and in experiment [2] was inactive.

As to `NS(=O)(=O)c1ccc(S(=O)(=O)N2CCN(c3nc(-c4ccccc4)nc4ccccc34)CC2)cc1`, the outcome in experiment [1] and in experiment [2] was inactive.

On to `O=S(=O)(c1cccc(Cl)c1)N1CCN(c2nc(-c3cccs3)nc3ccccc23)CC1`, for which the outcome in experiment [1] and in experiment [2] was inactive.

`O=S(=O)(c1cc(Cl)cc(Cl)c1)N1CCN(c2nc(-c3cccs3)nc3ccccc23)CC1`: the outcome in experiment [1] and in experiment [2] was inactive.

As for `Cc1ccc(S(=O)(=O)N2CCN(c3nc(-c4cccnc4)nc4ccccc34)CC2)cc1`, the outcome in experiment [1] and in experiment [2] was inactive.

As to `O=S(=O)(c1ccc2c(c1)CCC2)N1CCN(c2nc(-c3ccccc3)nc3ccccc23)CC1`, the outcome in experiment [1] and in experiment [2] was inactive.

As to `CCOC(=O)c1ccc(S(=O)(=O)N2CCN(c3nc(-c4ccccc4)nc4ccccc34)CC2)cc1`, the result in experiment [1] and in experiment [2] was inactive.

`COc1ccc(-c2nc(N3CCN(S(=O)(=O)c4ccc(C)cc4)CC3)c3ccccc3n2)cc1`: the result in experiment [1] and in experiment [2] was inactive.

Take `Cc1ccc(S(=O)(=O)N2CCN(c3nc(-n4cnc5ccccc54)nc4ccccc34)CC2)cc1`: the outcome in experiment [1] and in experiment [2] was inactive.

As to `O=S(=O)(c1ccc(F)cc1)N1CCN(c2nc(C3CC3)nc3ccccc23)CC1`, the result in experiment [1] and in experiment [2] was inactive.

As to `COc1ccc(S(=O)(=O)N2CCN(c3nc(-c4cccs4)nc4ccccc34)CC2)cc1OC`, the result in experiment [1] and in experiment [2] was inactive.

For `CC(C)(C)OC(=O)N1CCN(c2nc(-c3cccs3)nc3ccccc23)CC1`, the result in experiment [1] and in experiment [2] was inactive.

As for `O=S(=O)(c1ccc2c(c1)OCCO2)N1CCN(c2nc(-c3ccccc3)nc3ccccc23)CC1`, the result in experiment [1] and in experiment [2] was inactive.

In the case of `Cc1ccccc1S(=O)(=O)N1CCN(c2nc(-c3cccs3)nc3ccccc23)CC1`, the outcome in experiment [1] and in experiment [2] was inactive.

Take `Cc1ccc(S(=O)(=O)N2CCN(c3nc(-c4ncco4)nc4ccccc34)CC2)cc1`: the result in experiment [1] and in experiment [2] was inactive.

For the compound `CC(C)(C)c1cccc(S(=O)(=O)N2CCN(c3nc(-c4cccs4)nc4ccccc34)CC2)c1`, the result in experiment [1] and in experiment [2] was inactive.

`Fc1ccccc1N1CCN(c2nc(-c3cccs3)nc3ccccc23)CC1`: the outcome in experiment [1] and in experiment [2] was inactive.

For `O=S(=O)(c1cccs1)N1CCN(c2nc(-c3cccs3)nc3ccccc23)CC1`, the result in experiment [1] and in experiment [2] was inactive.

`CC(=O)c1cccc(S(=O)(=O)N2CCN(c3nc(-c4cccs4)nc4ccccc34)CC2)c1`: the outcome in experiment [1] and in experiment [2] was inactive.

As to `CN1CCOc2cc(S(=O)(=O)N3CCN(c4nc(-c5cccs5)nc5ccccc45)CC3)ccc21`, the result in experiment [1] and in experiment [2] was inactive.

With `COc1cccc(S(=O)(=O)N2CCN(c3nc(-c4cccs4)nc4ccccc34)CC2)c1`, the result in experiment [1] and in experiment [2] was inactive.

Consider `O=S(=O)(c1ccc(OC(F)(F)F)cc1)N1CCN(c2nc(-c3ccccc3)nc3ccccc23)CC1`, for which the result in experiment [1] and in experiment [2] was inactive.

Consider `Cc1ccc(S(=O)(=O)N2CCN(c3nc(-c4cccs4)nc4cccnc34)CC2)cc1`, for which the outcome in experiment [1] and in experiment [2] was inactive.

`O=S(=O)(c1ccccc1Cl)N1CCN(c2nc(-c3cccs3)nc3ccccc23)CC1`: the result in experiment [1] and in experiment [2] was inactive.

For the compound `O=S(=O)(c1ccc2ncsc2c1)N1CCN(c2nc(-c3cccs3)nc3ccccc23)CC1`, the result in experiment [1] and in experiment [2] was inactive.

With `Cc1ccc(S(=O)(=O)N2CCN(c3cc(-c4cccs4)nc4ccccc34)CC2)cc1`, the outcome in experiment [1] and in experiment [2] was inactive.

As for `CC(=O)c1ccccc1S(=O)(=O)N1CCN(c2nc(-c3cccs3)nc3ccccc23)CC1`, the outcome in experiment [1] and in experiment [2] was inactive.

`O=S(=O)(c1ccccc1F)N1CCN(c2nc(-c3cccs3)nc3ccccc23)CC1`: the result in experiment [1] and in experiment [2] was inactive.

Take `O=S(=O)(c1nccs1)N1CCN(c2nc(-c3cccs3)nc3ccccc23)CC1`: the result in experiment [1] and in experiment [2] was inactive.

Take `O=[N+]([O-])c1cccc(S(=O)(=O)N2CCN(c3nc(-c4ccccc4)nc4ccccc34)CC2)c1`: the result in experiment [1] and in experiment [2] was inactive.

With `O=S(=O)(c1ccccc1C(F)(F)F)N1CCN(c2nc(-c3cccs3)nc3ccccc23)CC1`, the outcome in experiment [1] and in experiment [2] was inactive.

Turning to `O=S(=O)(c1ccc(OC(F)(F)F)cc1)N1CCN(c2nc(-c3cccs3)nc3ccccc23)CC1`, the outcome in experiment [1] and in experiment [2] was inactive.

As for `CCOc1ccc(S(=O)(=O)N2CCN(c3nc(-c4ccccc4)nc4ccccc34)CC2)cc1`, the result in experiment [1] and in experiment [2] was inactive.

For the compound `O=S(=O)(c1cccc(Br)c1)N1CCN(c2nc(-c3cccs3)nc3ccccc23)CC1`, the outcome in experiment [1] and in experiment [2] was inactive.

As to `Cc1ccc(S(=O)(=O)N2CCN(c3ncnc4ccccc34)CC2)cc1`, the outcome in experiment [1] and in experiment [2] was inactive.

With `CC(=O)c1ccc(S(=O)(=O)N2CCN(c3nc(-c4ccccc4)nc4ccccc34)CC2)cc1`, the outcome in experiment [1] and in experiment [2] was inactive.

In the case of `CCOC(=O)c1ccccc1S(=O)(=O)N1CCN(c2nc(-c3cccs3)nc3ccccc23)CC1`, the outcome in experiment [1] and in experiment [2] was inactive.

Regarding `Cc1ccc(S(=O)(=O)N2CCN(c3nc(-c4cccs4)nc(C)c3C)CC2)cc1`, the outcome in experiment [1] and in experiment [2] was inactive.

On to `O=S(=O)(c1ccc(Br)cc1)N1CCN(c2nc(-c3cccs3)nc3ccccc23)CC1`, for which the outcome in experiment [1] and in experiment [2] was inactive.

Turning to `O=S(=O)(N1CCN(c2nc(-c3cccs3)nc3ccccc23)CC1)C(F)(F)F`, the result in experiment [1] and in experiment [2] was inactive.

Consider `O=S(=O)(c1cccc(Cl)c1)N1CCN(c2nc(-c3ccccc3)nc3ccccc23)CC1`, for which the result in experiment [1] and in experiment [2] was inactive.

With `Cc1cccc(S(=O)(=O)N2CCN(c3nc(-c4cccs4)nc4ccccc34)CC2)c1`, the outcome in experiment [1] and in experiment [2] was inactive.

On to `COc1ccc(S(=O)(=O)N2CCN(c3nc(-c4ccccc4)nc4ccccc34)CC2)cc1`, for which the result in experiment [1] and in experiment [2] was inactive.

On to `NS(=O)(=O)c1ccc(S(=O)(=O)N2CCN(c3nc(-c4cccs4)nc4ccccc34)CC2)cc1`, for which the result in experiment [1] and in experiment [2] was inactive.

For the compound `O=[N+]([O-])c1ccc(S(=O)(=O)N2CCN(c3nc(-c4ccccc4)nc4ccccc34)CC2)cc1`, the outcome in experiment [1] and in experiment [2] was inactive.

On to `O=S(=O)(c1ccc2ccccc2c1)N1CCN(c2nc(-c3ccccc3)nc3ccccc23)CC1`, for which the outcome in experiment [1] and in experiment [2] was inactive.

For the compound `O=S(=O)(c1cccc(F)c1)N1CCN(c2nc(-c3cccs3)nc3ccccc23)CC1`, the result in experiment [1] and in experiment [2] was inactive.

As for `O=[N+]([O-])c1cccc(S(=O)(=O)N2CCN(c3nc(-c4cccs4)nc4ccccc34)CC2)c1`, the outcome in experiment [1] and in experiment [2] was inactive.

In the case of `CC(C)(C)c1ccc(S(=O)(=O)N2CCN(c3nc(-c4cccs4)nc4ccccc34)CC2)cc1`, the result in experiment [1] and in experiment [2] was inactive.

For the compound `Cc1ccc(S(=O)(=O)C2CCN(c3nc(-c4cccs4)nc4ccccc34)CC2)cc1`, the result in experiment [1] and in experiment [2] was inactive.

For the compound `N#Cc1cccc(S(=O)(=O)N2CCN(c3nc(-c4cccs4)nc4ccccc34)CC2)c1`, the result in experiment [1] and in experiment [2] was inactive.

With `O=S(=O)(c1cccc(C(F)(F)F)c1)N1CCN(c2nc(-c3ccccc3)nc3ccccc23)CC1`, the outcome in experiment [1] and in experiment [2] was inactive.

For `O=C(c1ccc2c(c1)OCCO2)N1CCN(c2nc(-c3cccs3)nc3ccccc23)CC1`, the outcome in experiment [1] and in experiment [2] was inactive.

Consider `CC(=O)N1CCN(c2nc(-c3cccs3)nc3ccccc23)CC1`, for which the outcome in experiment [1] and in experiment [2] was inactive.

The values above are taken from ChEMBL document CHEMBL1671789, “Evaluation of quinazoline analogues as glucocerebrosidase inhibitors with chaperone activity” (J Med Chem, 2011).
